Measured values: patent publication US7160898B2, “Pharmacological treatment for sleep apnea” (Board of Trustees of The University of Illinois, priority 2002, dated 2007)
Entries after “also recorded” stand apart in the source; their conditions may differ.

Columns and labels:
Format in all cases: in vivo, rat (Sprague-Dawley)
[1] = system: spontaneous sleep-related central apneas; experiment: Induction and suppression of sleep apneas by serotonin and GR38032F (Example 3)
Protocol: Ten adult male Sprague-Dawley rats (Sasco-King, Wilmington, Mass.; 300 g) were maintained on a 12-h light (08:00–20:00 hour)/12-hour dark (20:00–08:00) cycle for one week, housed in individual cages, and given ad libitum access to food and water. Following the one week of acclimatization, animals were prepared for physiological testing via the surgical procedures (i.e., implantation of cortical electrodes for EEG recording and neck muscle electrodes for EMG recording, implantation of a radiotelemetry transmitter for BP and HP monitoring) as set forth above in Example 1. After completion of the surgical procedures, animals were allowed a one week recovery period prior to use in the present study. Each animal was recorded on four occasions, with recordings for an individual animal separated by at least three days. Fifteen minutes prior to each recording, each animal received (via intraperitoneal injection), in random order, one of the following: (a) saline solution (control); (b) 0.79 mg/kg serotonin; (c) 0.1 mg/kg GR38032F plus 0.79 mg/kg serotonin; or (d) 0.1 mg/kg GR38032F. For the GR38032F+serotonin test group, 0.1 mg/kg GR38032F was administered at time 09:30 followed by 0.79 mg/kg serotonin at time 09:45. Polygraphic recordings were made from 10:00–16:00. Respiration BP, EEG, and EMG data were determined and recorded via the experimental procedure as specifically set forth above in Example 2. As in Example 2, sleep apneas, defined as cessation of respiratory effort for at least 2.5 s, were scored for each recording session and were associated with the stage in which they occurred: NREM or REM sleep. The duration requirement of 2.5 s represents at least two “missed” breaths, which is analogous to a 10-s apnea duration requirement in humans. The effects of sleep stage (NREM vs REM) and injection (control vs. administration of either serotonin alone, GR38032F+serotonin, or GR38032F alone) on apnea indexes, respiratory pattern, BP, and HP were tested using analysis of variance (ANOVA) with repeated measures. Multiple comparisons were controlled using Fisher's protected least-significance difference (PLSD). One-way ANOVA was also performed by nonparametric (Kruskal-Wallis) analysis. Conclusions using parametric and nonparametric ANOVA were identical in all cases.

NREM and REM sleep = experiment: Sleep/wake staging by EEG/EMG after GR38032F (Example 2); settings: 1 mg/kg i.p.
Protocol: (§1) Physiological parameters (see below) from each animal were recorded on 2 occasions in random order, with recordings for an individual animal separated for at least 3 days. Fifteen minutes prior to each recording each animal received a systemic injection (1 ml/kg intraperitoneal bolus injection) of either saline (control) or 1 mg/kg of ondansetron (GR38032F; 1,2,3,9-tetrahydro-9-methyl-3-[(2-methylimidazol-1-yl)methyl]carbazole-4-one, hydrochloride, dihydrate; Glaxo Wellcome, Inc., Research Triangle Park, N.C.). Polygraphic recordings were made from hours 10:00–16:00.
Respiration was recorded by placing each animal, unrestrained, inside a single chamber plethysmograph (PLYUNIR/U; Buxco Electronics, Sharon, Conn.; dimension 6 in.×10 in.×6 in.) ventilated with a bias flow of fresh room air at a rate of 2 L/min. A cable plugged onto the animal's connector and passed through a sealed port was used to carry the bioelectrical activity from the head implant.
Sleep and waking states were assessed using the biparietal EEG and nuchal EMG signals on 10-second epochs as described by Bennington et al. [Sleep, 17:28–36 (1994)]. […] Sleep efficiency was measured as the percentage of total recorded epochs staged as NREM or REM sleep.

[2] = system: normalized minute ventilation; experiment: Plethysmographic minute ventilation after GR38032F (Example 2); settings: 1 mg/kg i.p., 6 recording hours, vs control; hydrochloride, dihydrate
Protocol: as §1
Respiration was recorded by placing each animal, unrestrained, inside a single chamber plethysmograph (PLYUNIR/U; Buxco Electronics, Sharon, Conn.; dimension 6 in.×10 in.×6 in.) ventilated with a bias flow of fresh room air at a rate of 2 L/min. […]
An accepted physiological animal model [rat; Monti, et al., Pharamcol. […] More specifically, sleep apneas, defined as cessation of respiratory effort for at least 2.5 seconds, were scored for each recording session and were associated with the stage of sleep in which they occurred: NREM or REM sleep. […] The events detected represent central apneas because decreased ventilation associated with obstructed or occluded airways would generate an increased plethysmographic signal, rather than a pause. […]

## Cc1nccn1CC1CCc2c(c3ccccc3n2C)C1=O.Cl.O.O (stereo not drawn) [GR38032F, 1,2,3,9-tetrahydro-9-methyl-3-[(2-methylimidazol-1-yl)methyl]carbazole-4-one, hydrochloride, dihydrate]
[1]; 0.1 mg/kg GR38032F i.p. 15 min before 0.79 mg/kg serotonin, hydrochloride, dihydrate
  antagonism of the serotonin-induced increase of REM sleep apneas: abolished; also recorded: fully blocked
[1]; GR38032F alone 0.1 mg/kg i.p.
  effect on REM sleep spontaneous apneas: had no effect on REM sleep spontaneous apneas
[1]; i.p., serotonin 0.79 mg/kg, GR38032F 0.1 mg/kg, 6 hour recording
  spontaneous apnea index during NREM sleep: not affected by any drug treatment
NREM and REM sleep; 6 hours
  percentage of total recording time spent in REM sleep: did not significantly affect REM sleep
NREM and REM sleep; first 2 hours, p<0.001
  percentage of total recording time spent in NREM sleep: significant suppression of NREM sleep
[2]
  normalized minute ventilation during W, NREM and REM sleep: significantly larger; also recorded: significant stimulation of ventilation during all behavioral states
